The source of these data is paper PMC12811501, “A plant-derived antimicrobial peptide with multiple mechanisms of action exhibiting antibacterial and antibiofilm activities comparable to or superior to polymyxin B” (Current Research in Microbial Sciences, 2025).

Converted amounts (≈) assume the structure as drawn. Residues, ends and D or L forms follow the SMILES beside them.

One data set relates to A. baumannii. In kind it is cell-based, Acinetobacter baumannii. To be noted: 8 h. The method, then: (§1) For serum stability test human blood was purchased from the Regional Blood Centre in Szeged (the use of human blood has been authorized by the Regional Hungarian Ethics Committee and approved by the Ethics Review Sector of DG RTD (European Commission) in connection with EK’s ERC AdG SymBiotics). The cells from 10 ml of EDTA-blood were centrifuged at 1500 × g for 1 min and washed several times in TBS buffer (10 mM Tris, pH: 7.2, 150 mM NaCl) until the supernatant, representing the serum, became colorless. The NCR169C17–38 peptide was added to the serum at 1:1 ratio and incubated at room temperature for 8 h. Subsequently, serial 2-fold dilutions of the peptide were prepared in PPB, with concentrations ranging from 100 to 0.2 µM and antimicrobial assay was done to determine the MBC values. Experiments were done in three biological replicates.

Data set [1] deals with Escherichia coli (ATCC 8739). In kind it is cell-based. To be noted: ATCC 8739. The text has this:
The Gram-positive strains Enterococcus faecalis (ATCC 29212), Staphylococcus aureus (HNCMO112011), and Listeria monocytogenes (ATCC 19111), and the Gram-negative strains Pseudomonas aeruginosa (ATCC 27853), Escherichia coli (ATCC 8739), Salmonella enterica (ATCC 13076), Klebsiella pneumoniae (NCTC 13440), and Acinetobacter baumannii (ATCC 17978) were obtained from ATCC (United States) and NCTC (National Collection of Type Cultures – England).
Minimal bactericidal concentrations (MBC) of peptides and reference antibiotics were determined in 20 mM potassium phosphate buffer (PPB, pH 7.4) and Mueller–Hinton broth (MHB) as described by ([Jenei et al., 2020]). Briefly, bacterial cultures were grown to mid-log phase, washed, adjusted to OD₆₀₀ = 0.1 (∼10⁷ CFU/mL), added 10 μl of it into 100 μl mixture and incubated in 96-well plates with 2-fold serial dilutions of peptides or antibiotics. After incubation at 37 °C with shaking, bacterial viability was assessed by plating 5 μL aliquots on LB agar. MBC was defined as the lowest concentration yielding no colony growth. […]
Three biological replicates were treated at OD600 = 0.2 with a final concentration of 1.6 µM NCR169C17–38 peptide for 20 min, while the control samples were treated with the same amount of water for 20 min. […] Quality and quantity was detected using 2200 TapeStation (Agilent) and Qubit RNA BR Assay […]

For data set [2], the system named is circular plasmid DNA (pDEST-GBKT7). As to the kind of experiment: Gel retardation assay. To be noted: 250 ng circular plasmid DNA, peptide 50 µM to 0.8 µM. The format is binding. The procedure: The DNA- and RNA-binding abilities of NCR169C17–38, its parental peptide NCR169, and two shorter derivatives (NCR169_16–27 and NCR169_17–27) were initially evaluated using a gel retardation assay. In this setup, 100 ng of either E. coli genomic DNA or total RNA was incubated with 10 µM or 100 µM of each peptide for 30 min at 37 °C. Reaction mixtures, along with untreated controls, were then subjected to agarose gel electrophoresis, and the resulting nucleic acid migration patterns were examined for changes indicative of peptide binding. The interaction of NCR169C17–38 with circular plasmid DNA (pDEST-GBKT7) was also characterized using peptide concentrations ranging from 50 µM to 0.8 µM, prepared by 2-fold serial dilution. Experiments were done in three biological replicates.
To explore whether the NCR169C17–38 peptide has secondary intracellular targets of the bacterial cells beyond the primary membrane disruption, we tested its possible interaction with nucleic acids in gel retardation assays. A pilot experiment indicated strong DNA-binding capacity, prompting us to include the parental NCR169 peptide and the shorter derivatives NCR169_16–27 and NCR169_17–27 for comparison (Fig. 3.). […] Similar results were obtained with total E. coli RNA (Fig. 3.B). […]

Data set [3] deals with mouse macrophage J774.2 cells. To be noted: cited from earlier work.
A further data set has as its target Proteinase K (Parengyodontium album, UniProt P06873). The data set can be described thus: Proteinase K treatment of peptide-DNA samples (recovery of SYBR Gold fluorescence). To be noted: Proteinase K 1 mg/ml added at 27 min to peptide-DNA-SYBR Gold samples, 10 µM peptide. The method, then: In addition, DNA-binding kinetics were monitored in real time using a Hidex Sense plate reader at room temperature in three independent experiments. Reaction mixtures contained 100 ng of HindIII-digested lambda phage DNA in 1 × SYBR Gold (Thermo Scientific), either without peptide or with 10 µM of NCR169C17–38 (2.74041 µg), NCR169 (4.56545 µg), NCR169_16–27 (1.56597 µg), or NCR169_17–27 (1.40279 µg). Peptides were added either at the start (0 min) or at 14 min. Fluorescence from DNA-bound SYBR Gold was measured every 3 min (excitation 490 nm, emission 535 nm). At 27 min, proteinase K (1 mg/ml; 100 µg final) was added to peptide-treated samples to assess the effect on peptide–DNA binding. Experiments were done in three biological replicates.
The DNA-binding kinetics were quantified using SYBR Gold fluorescence (Fig. 3.D). […] To test if peptide removal would recover the DNA–SYBR Gold fluorescence to control values, Proteinase K was added at 27 min to all reactions. […] In contrast, fluorescence values in the NCR169 samples remained unchanged, while those of NCR169C17–38 or NCR169_17–27 increased slightly and gradually to the same limited extent.

Data set [4] has as its system human keratinocyte HaCaT cells. The settings on record: cited from earlier work.
The test system of a further data set is E. coli. In kind it is cell-based, Escherichia coli. To be noted: 8 h. The procedure:
as §1

Sequence of Proteinase K (P06873 106-384): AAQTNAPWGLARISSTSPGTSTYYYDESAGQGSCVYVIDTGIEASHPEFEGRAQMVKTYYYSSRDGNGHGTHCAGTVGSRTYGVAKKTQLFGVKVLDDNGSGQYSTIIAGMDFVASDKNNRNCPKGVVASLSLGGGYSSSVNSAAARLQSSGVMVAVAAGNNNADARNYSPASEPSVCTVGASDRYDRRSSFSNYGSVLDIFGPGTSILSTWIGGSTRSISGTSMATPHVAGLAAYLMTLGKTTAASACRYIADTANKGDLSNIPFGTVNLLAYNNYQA

For `CC[C@H](C)[C@H](NC(=O)[C@H](CCCCN)NC(=O)[C@H](Cc1ccccc1)NC(=O)[C@H](CC(C)C)NC(=O)[C@@H]1CCCN1C(=O)[C@H](CCCCN)NC(=O)[C@H](CCCCN)NC(=O)[C@H](CO)NC(=O)[C@@H](N)CCCCN)C(=O)N[C@@H](Cc1c[nH]c2ccccc12)C(=O)N[C@@H](CCCCN)C(=O)N[C@@H](CS)C(=O)N[C@H](C(=O)N[C@@H](CCC(=O)O)C(=O)N[C@@H](CC(N)=O)C(=O)N[C@H](C(=O)N[C@@H](CS)C(=O)N[C@H](C(=O)N[C@@H](CC(C)C)C(=O)N[C@@H](Cc1c[nH]c2ccccc12)C(=O)N[C@@H](Cc1ccc(O)cc1)C(=O)N[C@@H](CCCCN)C(N)=O)C(C)C)C(C)C)C(C)C` [NCR169C17–38] (H-KSKKPLFKIWKCVENVCVLWYK-NH2; N-terminus assumed), the “MBC after pre-incubation in human serum” value against A. baumannii was 6.3 µM (≈ 17.3 µg/mL); in the data set with E. coli, 3.1 µM (≈ 8.49 µg/mL). The compound also registered an MBC in data set [1] of 6.2 µM (≈ 17 µg/mL). In data set [2], the “plasmid DNA binding, gel retardation” value is reported as “complete retention of DNA in the well at higher concentrations”. The cytotoxicity entry in data set [3] and in data set [4] was “non-cytotoxic” throughout. Further, the “sensitivity to Proteinase K treatment” value at Proteinase K is “only partial sensitivity”.
